From ChEMBL document CHEMBL3885861, “Open TG-GATES”

Organism: Rattus norvegicus
Test: Open TG-GATES - Regimen: Daily Repeat
Type: toxicity, organism-based, Sprague-Dawley
Parameters: regimen Daily Repeat, gender Male, age 6 weeks
Settings: in vivo, po, 100 mg/kg, route gavage, dose level Middle; for APTT / Bas / Eos / Fbg / Hb / Ht / Lym / MCH / MCHC / MCV / Mono / Neu / PT / Plat / RBC / Ret / WBC: tissue Blood; for KIDNEY_L / KIDNEY_R / KIDNEY_TOTAL: tissue Kidney; for LIVER: tissue Liver; for A/G / ALP / ALT / AST / BUN / CRE / Ca / Cl / DBIL / GLC / IP / K / LDH / Na / PL / RALB / TBIL / TC / TG / TP / gamma-GTP: tissue Plasma

## CCc1oc2ccccc2c1C(=O)c1cc(I)c(O)c(I)c1 [BENZIODARONE]
72 h, time 3 day
  TERMINAL_BW: 247.4 g
  APTT: 17.8 s
  Bas: 0%
  Eos: 0.8%
  Fbg: 228.6 mg/dL
  Hb: 13.9 g/dL
  Ht: 41.6%
  Lym: 80.4%
  MCH: 21.3 pg
  MCHC: 33.3%
  MCV: 63.9 fL
  Mono: 5.8%
  Neu: 12.4%
  PT: 11.4 s
  Plat: 123.9 x10_4/uL
  RBC: 651.4 x10_4/ul
  Ret: 6.4%
  WBC: 123 x10_2/uL
  KIDNEY_L: 1.1 g
  KIDNEY_R: 1.1 g
  KIDNEY_TOTAL: 2.3 g
  LIVER: 14.4 g
  A/G: 1.9
  ALP: 1104 IU/L
  ALT: 38.2 IU/L
  AST: 61 IU/L
  BUN: 17.6 mg/dL
  CRE: 0.5 mg/dL
  Ca: 10.8 mg/dL
  Cl: 103.4 meq/L
  DBIL: 0.038 mg/dL
  GLC: 196 mg/dL
  IP: 7.3 mg/dL
  K: 4.4 meq/L
  LDH: 112.6 IU/L
  Na: 140.6 meq/L
  PL: 148.4 mg/dL
  RALB: 3.8 g/dL
  TBIL: 0.3 mg/dL
  TC: 79 mg/dL
  TG: 66 mg/dL
  TP: 5.9 g/dL
  gamma-GTP: 2 IU/L
[…], time 7 day
  TERMINAL_BW: 273.1 g
  APTT: 17.9 s
  Bas: 0%
  Eos: 1.2%
  Fbg: 241 mg/dL
  Hb: 14.1 g/dL
  Ht: 41.6%
  Lym: 78.6%
  MCH: 21.1 pg
  MCHC: 33.9%
  MCV: 62.5 fL
  Mono: 7.2%
  Neu: 13%
  PT: 11.7 s
  Plat: 139.6 x10_4/uL
  RBC: 666.6 x10_4/ul
  Ret: 3.8%
  WBC: 95.7 x10_2/uL
  KIDNEY_L: 1.2 g
  KIDNEY_R: 1.2 g
  KIDNEY_TOTAL: 2.4 g
  LIVER: 15.6 g
  A/G: 1.7
  ALP: 1041.8 IU/L
  ALT: 35 IU/L
  AST: 65.2 IU/L
  BUN: 20.6 mg/dL
  CRE: 0.6 mg/dL
  Ca: 11 mg/dL
  Cl: 103 meq/L
  DBIL: 0.03 mg/dL
  GLC: 184 mg/dL
  IP: 7.8 mg/dL
  K: 4.5 meq/L
  LDH: 119.8 IU/L
  Na: 140.6 meq/L
  PL: 153.4 mg/dL
  RALB: 3.8 g/dL
  TBIL: 0.3 mg/dL
  TC: 78.8 mg/dL
  TG: 87.2 mg/dL
  TP: 6.1 g/dL
  gamma-GTP: 1.6 IU/L
[…], time 14 day
  TERMINAL_BW: 322 g
  APTT: 18.4 s
  Bas: 0%
  Eos: 0.8%
  Fbg: 229.4 mg/dL
  Hb: 14.3 g/dL
  Ht: 42.5%
  Lym: 85%
  MCH: 20.4 pg
  MCHC: 33.6%
  MCV: 60.7 fL
  Mono: 5.2%
  Neu: 9.2%
  PT: 11.8 s
  Plat: 122.8 x10_4/uL
  RBC: 700.6 x10_4/ul
  Ret: 2.5%
  WBC: 113.1 x10_2/uL
  KIDNEY_L: 1.2 g
  KIDNEY_R: 1.3 g
  KIDNEY_TOTAL: 2.5 g
  LIVER: 16.9 g
  A/G: 2
  ALP: 712.4 IU/L
  ALT: 34.2 IU/L
  AST: 61.6 IU/L
  BUN: 20.8 mg/dL
  CRE: 0.6 mg/dL
  Ca: 10.6 mg/dL
  Cl: 105.2 meq/L
  DBIL: 0.04 mg/dL
  GLC: 199 mg/dL
  IP: 6.9 mg/dL
  K: 4.4 meq/L
  LDH: 105 IU/L
  Na: 141 meq/L
  PL: 139.6 mg/dL
  RALB: 4 g/dL
  TBIL: 0.2 mg/dL
  TC: 73.8 mg/dL
  TG: 67.6 mg/dL
  TP: 6 g/dL
  gamma-GTP: 1.2 IU/L
[…], time 28 day
  TERMINAL_BW: 412 g
  APTT: 18.9 s
  Bas: 0%
  Eos: 1.4%
  Fbg: 225 mg/dL
  Hb: 15.2 g/dL
  Ht: 45.2%
  Lym: 81.8%
  MCH: 19.5 pg
  MCHC: 33.7%
  MCV: 58 fL
  Mono: 6%
  Neu: 11.2%
  PT: 11.8 s
  Plat: 114.5 x10_4/uL
  RBC: 778.6 x10_4/ul
  Ret: 3.4%
  WBC: 123.7 x10_2/uL
  KIDNEY_L: 1.4 g
  KIDNEY_R: 1.5 g
  KIDNEY_TOTAL: 2.9 g
  LIVER: 21.8 g
  A/G: 1.7
  ALP: 685.6 IU/L
  ALT: 37 IU/L
  AST: 59.2 IU/L
  BUN: 22 mg/dL
  CRE: 0.7 mg/dL
  Ca: 10.7 mg/dL
  Cl: 103.6 meq/L
  DBIL: 0.012 mg/dL
  GLC: 195.4 mg/dL
  IP: 6.4 mg/dL
  K: 4.4 meq/L
  LDH: 96.6 IU/L
  Na: 140.6 meq/L
  PL: 159.6 mg/dL
  RALB: 4.1 g/dL
  TBIL: 0.3 mg/dL
  TC: 86.4 mg/dL
  TG: 78.6 mg/dL
  TP: 6.5 g/dL
  gamma-GTP: 1.2 IU/L
